Experimental data: ChEMBL document CHEMBL1201862, “PubChem BioAssay data set” (2004)
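Where inhibition never reached the appropriate level, the endpoint shown equals the highest concentration tested. Otherwise, values were interpolated linearly from a five-concentration, 48-hour dose response in 96-well plates. GI50: concentration for 50% inhibition of growth.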 The source made the active and inactive calls. No stated cut-off is given here; in the data, active = GI50 up to about 1.1 µM and inactive = higher.

What was measured:
Test in all cases: NCI tumour cell line growth inhibition, 48 h
SNB-78 = test system: SNB-78
HOP-18 = test system: HOP-18
DMS-114 = test system: DMS-114
XF498 = test system: XF498
DMS-273 = test system: DMS-273
DLD-1 = test system: DLD-1
KM-20L2 = test system: KM-20L2
RXF 631 = test system: RXF 631
M19-MEL = test system: M19-MEL

Measured: GI50

COC(=O)NC1C(C)OC(OC2C/C=C(/C)C3C=CC4C(OC5CC(OC6CC(O)C(OC7CC(O)C(OC)C(C)O7)C(C)O6)C(O)C(C)O5)C(C)CC(C)C4C3(C)C(=O)C3=C(O)C4(CC(C)C(CO)=CC4/C=C\2C)OC3=O)CC1(C)[N+](=O)[O-] (stereo unspecified)
inactive: SNB-78 5.47 µM | HOP-18 15.1 µM | DMS-114 2.5 µM | XF498 10.6 µM | DMS-273 11.4 µM | DLD-1 12.7 µM | KM-20L2 17.1 µM | RXF 631 21 µM | M19-MEL 4.43 µM

CCOC(=O)c1c[nH]c2c(ccc3nn(C)nc32)c1=O
inactive: SNB-78 15.5 µM | HOP-18 > 100 µM | DMS-114 49.8 µM | XF498 > 100 µM | DMS-273 19.9 µM | DLD-1 50.4 µM | KM-20L2 > 100 µM | RXF 631 > 100 µM | M19-MEL > 100 µM

Cc1cc(Cl)ccc1NC(=O)/C(=N\NC(C)(C)C)C(C#N)c1nc(-c2ccc([N+](=O)[O-])cc2)cs1 (stereo unspecified)
inactive: SNB-78 > 100 µM | HOP-18 > 100 µM | DMS-114 > 100 µM | XF498 > 100 µM | DMS-273 > 100 µM | DLD-1 > 100 µM | KM-20L2 > 100 µM | RXF 631 > 100 µM | M19-MEL > 100 µM

Oc1ccccc1/C=C/c1csnn1
inactive: SNB-78 > 100 µM | HOP-18 > 100 µM | DMS-114 > 84.1 µM | XF498 > 100 µM | DMS-273 > 100 µM | DLD-1 > 100 µM | KM-20L2 > 100 µM | RXF 631 > 100 µM | M19-MEL > 100 µM
